{"source": "ChEMBL document CHEMBL4359841", "about": "“Late-Stage Functionalization of Platensimycin Leading to Multiple Analogues with Improved Antibacterial Activity in Vitro and in Vivo” (2019)", "note": "Activity calls are given as the source filed them. No rule for the calls is given here."}
{"tested_on": "Staphylococcus aureus", "assay": "Inhibition of FabB/FabF in methicillin-resistant Staphylococcus aureus assessed as antibacterial activity at 5 ug/disk after 18 hrs by agar disk diffusion method"}
{"smiles": "C[C@]12C[C@@]34C=C(Sc5ccc(C#CCN)cc5)C(=O)[C@@](C)(CCC(=O)Nc5c(O)ccc(C(=O)O)c5O)[C@@H]3[C@H](C[C@@H]1C4)O2", "antibacterial activity (disk diffusion, qualitative)": "Active"}
{"smiles": "CC(C)(C)SC1=C[C@]23C[C@H]4C[C@H](O[C@@]4(C)C2)[C@H]3[C@](C)(CCC(=O)Nc2c(O)ccc(C(=O)O)c2O)C1=O", "antibacterial activity (disk diffusion, qualitative)": "Active"}
{"smiles": "C[C@]12C[C@@]34C=C(Sc5cccs5)C(=O)[C@@](C)(CCC(=O)Nc5c(O)ccc(C(=O)O)c5O)[C@@H]3[C@H](C[C@@H]1C4)O2", "antibacterial activity (disk diffusion, qualitative)": "Active"}
{"smiles": "C[C@]12C[C@@]34C=C(Sc5ccc(C#Cc6ccc(C(=O)O)cc6)cc5)C(=O)[C@@](C)(CCC(=O)Nc5c(O)ccc(C(=O)O)c5O)[C@@H]3[C@H](C[C@@H]1C4)O2", "antibacterial activity (disk diffusion, qualitative)": "Active"}
{"smiles": "C[C@]12C[C@@]34C=C(Sc5cccc(-c6cccnc6)c5)C(=O)[C@@](C)(CCC(=O)Nc5c(O)ccc(C(=O)O)c5O)[C@@H]3[C@H](C[C@@H]1C4)O2", "antibacterial activity (disk diffusion, qualitative)": "Active"}
{"smiles": "C[C@]12C[C@@]34C=C(Sc5ccc(C#CC6(O)CCCCC6)cc5)C(=O)[C@@](C)(CCC(=O)Nc5c(O)ccc(C(=O)O)c5O)[C@@H]3[C@H](C[C@@H]1C4)O2", "antibacterial activity (disk diffusion, qualitative)": "Active"}
{"smiles": "CCCCCC#Cc1cccc(SC2=C[C@]34C[C@H]5C[C@H](O[C@@]5(C)C3)[C@H]4[C@](C)(CCC(=O)Nc3c(O)ccc(C(=O)O)c3O)C2=O)c1", "antibacterial activity (disk diffusion, qualitative)": "Active"}
{"smiles": "COc1ccc(C#Cc2cccc(SC3=C[C@]45C[C@H]6C[C@H](O[C@@]6(C)C4)[C@H]5[C@](C)(CCC(=O)Nc4c(O)ccc(C(=O)O)c4O)C3=O)c2)cc1", "antibacterial activity (disk diffusion, qualitative)": "Active"}
{"smiles": "C[C@]12C[C@@]34C=C(Sc5cccc(-c6cccc(O)c6)c5)C(=O)[C@@](C)(CCC(=O)Nc5c(O)ccc(C(=O)O)c5O)[C@@H]3[C@H](C[C@@H]1C4)O2", "antibacterial activity (disk diffusion, qualitative)": "Active"}
{"smiles": "Cc1ccc(C#Cc2cccc(SC3=C[C@]45C[C@H]6C[C@H](O[C@@]6(C)C4)[C@H]5[C@](C)(CCC(=O)Nc4c(O)ccc(C(=O)O)c4O)C3=O)c2)cc1", "antibacterial activity (disk diffusion, qualitative)": "Active"}
{"smiles": "C[C@]12C[C@@]34C=C(Sc5cccc(-c6ccccc6F)c5)C(=O)[C@@](C)(CCC(=O)Nc5c(O)ccc(C(=O)O)c5O)[C@@H]3[C@H](C[C@@H]1C4)O2", "antibacterial activity (disk diffusion, qualitative)": "Active"}
{"smiles": "COc1ccccc1-c1cccc(SC2=C[C@]34C[C@H]5C[C@H](O[C@@]5(C)C3)[C@H]4[C@](C)(CCC(=O)Nc3c(O)ccc(C(=O)O)c3O)C2=O)c1", "antibacterial activity (disk diffusion, qualitative)": "Active"}
{"smiles": "C[C@]12C[C@@]34C=C(Sc5c(F)c(F)c(F)c(F)c5F)C(=O)[C@@](C)(CCC(=O)Nc5c(O)ccc(C(=O)O)c5O)[C@@H]3[C@H](C[C@@H]1C4)O2", "antibacterial activity (disk diffusion, qualitative)": "Active"}
{"smiles": "C[C@]12C[C@@]34C=C(Sc5cccc(C#CCN)c5)C(=O)[C@@](C)(CCC(=O)Nc5c(O)ccc(C(=O)O)c5O)[C@@H]3[C@H](C[C@@H]1C4)O2", "antibacterial activity (disk diffusion, qualitative)": "Active"}
{"smiles": "C[C@]12C[C@@]34C=C(Sc5cccc(C#Cc6ccc(Cl)cc6)c5)C(=O)[C@@](C)(CCC(=O)Nc5c(O)ccc(C(=O)O)c5O)[C@@H]3[C@H](C[C@@H]1C4)O2", "antibacterial activity (disk diffusion, qualitative)": "Active"}
{"smiles": "C[C@]12C[C@@]34C=C(Sc5cccc6ccccc56)C(=O)[C@@](C)(CCC(=O)Nc5c(O)ccc(C(=O)O)c5O)[C@@H]3[C@H](C[C@@H]1C4)O2", "antibacterial activity (disk diffusion, qualitative)": "Active"}
{"smiles": "CNC(=O)/C=C/c1cccc(SC2=C[C@]34C[C@H]5C[C@H](O[C@@]5(C)C3)[C@H]4[C@](C)(CCC(=O)Nc3c(O)ccc(C(=O)O)c3O)C2=O)c1", "antibacterial activity (disk diffusion, qualitative)": "Active"}
{"smiles": "COc1ccc(SC2=C[C@]34C[C@H]5C[C@H](O[C@@]5(C)C3)[C@H]4[C@](C)(CCC(=O)Nc3c(O)ccc(C(=O)O)c3O)C2=O)cc1", "antibacterial activity (disk diffusion, qualitative)": "Active"}
{"smiles": "COC(=O)/C=C/c1ccc(SC2=C[C@]34C[C@H]5C[C@H](O[C@@]5(C)C3)[C@H]4[C@](C)(CCC(=O)Nc3c(O)ccc(C(=O)O)c3O)C2=O)cc1", "antibacterial activity (disk diffusion, qualitative)": "Active"}
{"smiles": "C[C@]12C[C@@]34C=C(Sc5cccc(C#Cc6cccc(F)c6)c5)C(=O)[C@@](C)(CCC(=O)Nc5c(O)ccc(C(=O)O)c5O)[C@@H]3[C@H](C[C@@H]1C4)O2", "antibacterial activity (disk diffusion, qualitative)": "Active"}
{"smiles": "CC(C)(C)OC(=O)/C=C/c1cccc(SC2=C[C@]34C[C@H]5C[C@H](O[C@@]5(C)C3)[C@H]4[C@](C)(CCC(=O)Nc3c(O)ccc(C(=O)O)c3O)C2=O)c1", "antibacterial activity (disk diffusion, qualitative)": "Active"}
{"smiles": "C[C@]12C[C@@]34C=C(Sc5ccc(-c6ccco6)cc5)C(=O)[C@@](C)(CCC(=O)Nc5c(O)ccc(C(=O)O)c5O)[C@@H]3[C@H](C[C@@H]1C4)O2", "antibacterial activity (disk diffusion, qualitative)": "Active"}
{"smiles": "CN(C)C(=O)/C=C/c1cccc(SC2=C[C@]34C[C@H]5C[C@H](O[C@@]5(C)C3)[C@H]4[C@](C)(CCC(=O)Nc3c(O)ccc(C(=O)O)c3O)C2=O)c1", "antibacterial activity (disk diffusion, qualitative)": "Active"}
{"smiles": "COc1ccccc1-c1ccc(SC2=C[C@]34C[C@H]5C[C@H](O[C@@]5(C)C3)[C@H]4[C@](C)(CCC(=O)Nc3c(O)ccc(C(=O)O)c3O)C2=O)cc1", "antibacterial activity (disk diffusion, qualitative)": "Active"}
{"smiles": "C=CCSC1=C[C@]23C[C@H]4C[C@H](O[C@@]4(C)C2)[C@H]3[C@](C)(CCC(=O)Nc2c(O)ccc(C(=O)O)c2O)C1=O", "antibacterial activity (disk diffusion, qualitative)": "Active"}
{"smiles": "CNC(=O)/C=C/c1ccc(SC2=C[C@]34C[C@H]5C[C@H](O[C@@]5(C)C3)[C@H]4[C@](C)(CCC(=O)Nc3c(O)ccc(C(=O)O)c3O)C2=O)cc1", "antibacterial activity (disk diffusion, qualitative)": "Active"}
{"smiles": "C[C@]12C[C@@]34C=C(Sc5cccc(-c6ccc(C=O)cc6)c5)C(=O)[C@@](C)(CCC(=O)Nc5c(O)ccc(C(=O)O)c5O)[C@@H]3[C@H](C[C@@H]1C4)O2", "antibacterial activity (disk diffusion, qualitative)": "Active"}
{"smiles": "C[C@]12C[C@@]34C=C(Sc5ccc(/C=C/C(=O)O)cc5)C(=O)[C@@](C)(CCC(=O)Nc5c(O)ccc(C(=O)O)c5O)[C@@H]3[C@H](C[C@@H]1C4)O2", "antibacterial activity (disk diffusion, qualitative)": "Active"}
{"smiles": "C[C@]12C[C@@]34C=C(Sc5cccc(C#Cc6ccc(F)cc6)c5)C(=O)[C@@](C)(CCC(=O)Nc5c(O)ccc(C(=O)O)c5O)[C@@H]3[C@H](C[C@@H]1C4)O2", "antibacterial activity (disk diffusion, qualitative)": "Active"}
{"smiles": "C[C@]12C[C@@]34C=C(Sc5cccc(C#CC6CC6)c5)C(=O)[C@@](C)(CCC(=O)Nc5c(O)ccc(C(=O)O)c5O)[C@@H]3[C@H](C[C@@H]1C4)O2", "antibacterial activity (disk diffusion, qualitative)": "Active"}
{"smiles": "C[C@]12C[C@@]34C=C(Sc5ccc(C(=O)O)cc5)C(=O)[C@@](C)(CCC(=O)Nc5c(O)ccc(C(=O)O)c5O)[C@@H]3[C@H](C[C@@H]1C4)O2", "antibacterial activity (disk diffusion, qualitative)": "Active"}
{"smiles": "C[C@]12C[C@@]34C=C(Sc5ccc(-c6ccc(C=O)cc6)cc5)C(=O)[C@@](C)(CCC(=O)Nc5c(O)ccc(C(=O)O)c5O)[C@@H]3[C@H](C[C@@H]1C4)O2", "antibacterial activity (disk diffusion, qualitative)": "Active"}
{"smiles": "Cc1ccc(SC2=C[C@]34C[C@H]5C[C@H](O[C@@]5(C)C3)[C@H]4[C@](C)(CCC(=O)Nc3c(O)ccc(C(=O)O)c3O)C2=O)c(C)c1", "antibacterial activity (disk diffusion, qualitative)": "Active"}
{"smiles": "CCCCc1ccc(SC2=C[C@]34C[C@H]5C[C@H](O[C@@]5(C)C3)[C@H]4[C@](C)(CCC(=O)Nc3c(O)ccc(C(=O)O)c3O)C2=O)cc1", "antibacterial activity (disk diffusion, qualitative)": "Active"}
{"smiles": "C[C@]12C[C@@]34C=C(Sc5cccc(/C=C/C(=O)OCCO)c5)C(=O)[C@@](C)(CCC(=O)Nc5c(O)ccc(C(=O)O)c5O)[C@@H]3[C@H](C[C@@H]1C4)O2", "antibacterial activity (disk diffusion, qualitative)": "Active"}
